The values below come from BindingDB's records for doi:10.7270/Q2GQ70ZD (n/a, 1994).

This assay concerns the target T1, Alpha-1B adrenergic receptor (Homo sapiens, UniProt P35368).
T1 sequence (P35368 whole entry): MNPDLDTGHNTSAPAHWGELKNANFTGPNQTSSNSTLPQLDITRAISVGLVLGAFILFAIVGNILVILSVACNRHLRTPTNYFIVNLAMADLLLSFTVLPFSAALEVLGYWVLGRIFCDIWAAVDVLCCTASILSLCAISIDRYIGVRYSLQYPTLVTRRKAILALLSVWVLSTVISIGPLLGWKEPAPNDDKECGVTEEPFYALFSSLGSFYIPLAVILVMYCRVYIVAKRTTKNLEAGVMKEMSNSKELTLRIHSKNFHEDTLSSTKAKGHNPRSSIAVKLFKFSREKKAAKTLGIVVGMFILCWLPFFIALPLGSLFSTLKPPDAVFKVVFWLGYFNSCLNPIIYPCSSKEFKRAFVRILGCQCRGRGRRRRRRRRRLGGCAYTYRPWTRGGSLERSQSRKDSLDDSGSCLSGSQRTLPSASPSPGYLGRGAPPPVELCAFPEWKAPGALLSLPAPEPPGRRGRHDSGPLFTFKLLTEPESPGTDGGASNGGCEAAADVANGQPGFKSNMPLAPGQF
Kind of assay: Binding affinity towards human Alpha-1B adrenergic receptor by the displacement of [3H]prazosin. (In general: Displacement assays read how much labelled ligand stays bound in the presence of the test substance.)
In turn, `C1COC(N2CCOCC2)=N1` displayed a Ki of 1000 µM.
To `C1COC(NC(C2CC2)C2CC2)=N1` [CHEBI:8862] belongs 21.4 µM; to `CCC[C@H]1CCCCC1NC1=NCCO1` (stereo partly specified), 3.98 µM; to `c1ccc2c(c1)CCCC2NC1=NCCCO1` (stereo unspecified), 6.76 µM.
With `C1CCCC(NC2=NCCO2)CC1` the figure was 28.2 µM; with `c1ccc2c(c1)CCCC2NC1=NCCO1` (stereo unspecified), 2.45 µM.

For orientation: Ki means the equilibrium dissociation constant of an inhibitor or competing ligand from its target. Lower therefore signals tighter binding.
